Results taken from the CheMixHub viscosity set.

Assay: xn = mol fraction of the nth substance listed

ClCCCl + c1ccccc1
101 kPa
Settings	viscosity [mPa·s]
293.15 K, x2 = 0.09	0.7903
293.15 K, x2 = 0.2	0.7512
293.15 K, x2 = 0.3	0.7172
293.15 K, x2 = 0.392	0.6824
293.15 K, x2 = 0.525	0.6583
293.15 K, x2 = 0.577	0.6545
293.15 K, x2 = 0.683	0.634
293.15 K, x2 = 0.81	0.636
293.15 K, x2 = 0.9	0.6404
298.15 K, x2 = 0.2	0.686
298.15 K, x2 = 0.4	0.634
298.15 K, x2 = 0.6	0.601
298.15 K, x2 = 0.8	0.59
313.15 K, x2 = 0.09	0.6098
313.15 K, x2 = 0.2	0.5936
313.15 K, x2 = 0.525	0.5387
313.15 K, x2 = 0.81	0.508

ClCCl + c1ccccc1
101.33 kPa
Settings	viscosity [mPa·s]
293.15 K, x1 = 0.1454	0.591
293.15 K, x1 = 0.259	0.559
293.15 K, x1 = 0.3662	0.531
293.15 K, x1 = 0.4451	0.513
293.15 K, x1 = 0.5158	0.498
293.15 K, x1 = 0.5932	0.484
293.15 K, x1 = 0.6593	0.471
293.15 K, x1 = 0.714	0.463
293.15 K, x1 = 0.764	0.456
298.15 K, x1 = 0.2149	0.535
298.15 K, x1 = 0.2959	0.514
298.15 K, x1 = 0.3817	0.497
298.15 K, x1 = 0.4921	0.477
298.15 K, x1 = 0.5445	0.466
298.15 K, x1 = 0.5957	0.458
298.15 K, x1 = 0.6358	0.452
298.15 K, x1 = 0.6923	0.445
303.15 K, x1 = 0.1659	0.516
303.15 K, x1 = 0.2665	0.494
303.15 K, x1 = 0.3831	0.468
303.15 K, x1 = 0.4907	0.446
303.15 K, x1 = 0.5944	0.429
303.15 K, x1 = 0.6777	0.419
303.15 K, x1 = 0.7557	0.412
303.15 K, x1 = 0.8164	0.406

CC(=O)O + c1ccncc1
Settings	viscosity [mPa·s]
293.15 K, 101 kPa, x2 = 0.104	4.421
293.15 K, 101 kPa, x2 = 0.2205	5.037
293.15 K, 101 kPa, x2 = 0.383	3.024
293.15 K, 101 kPa, x2 = 0.401	2.885
293.15 K, 101 kPa, x2 = 0.481	2.188
293.15 K, 101 kPa, x2 = 0.579	1.762
293.15 K, 101 kPa, x2 = 0.738	1.289
303.15 K, 101 kPa, x1 = 0.135	0.9842
303.15 K, 101 kPa, x1 = 0.2599	1.139
303.15 K, 101 kPa, x1 = 0.3756	1.346
303.15 K, 101 kPa, x1 = 0.4837	1.648
303.15 K, 101 kPa, x1 = 0.5841	2.075
303.15 K, 101 kPa, x1 = 0.6781	2.704
303.15 K, 101 kPa, x1 = 0.766	3.398
303.15 K, 101 kPa, x1 = 0.8509	3.624
303.15 K, 101 kPa, x1 = 0.9266	2.558
308.15 K, 101.33 kPa, x2 = 0.15	3.2
308.15 K, 101.33 kPa, x2 = 0.2	3.17
308.15 K, 101.33 kPa, x2 = 0.25	2.887
308.15 K, 101.33 kPa, x2 = 0.3	2.55
308.15 K, 101.33 kPa, x2 = 0.4	1.928
308.15 K, 101.33 kPa, x2 = 0.6	1.27
308.15 K, 101.33 kPa, x2 = 0.8	1.052
313.15 K, 101.33 kPa, x1 = 0.5	1.68
313.15 K, 101.33 kPa, x1 = 0.8	2.91
313.15 K, 101.33 kPa, x1 = 0.825	2.93
313.15 K, 101.33 kPa, x1 = 0.85	2.85
318.15 K, 101.33 kPa, x2 = 0.15	2.35
318.15 K, 101.33 kPa, x2 = 0.2	2.38
318.15 K, 101.33 kPa, x2 = 0.25	2.2
318.15 K, 101.33 kPa, x2 = 0.3	1.985
318.15 K, 101.33 kPa, x2 = 0.4	1.52
318.15 K, 101.33 kPa, x2 = 0.6	1.07
318.15 K, 101.33 kPa, x2 = 0.8	0.896

CCOC(N)=O + c1ccncc1
298.15 K, 101 kPa
Settings	viscosity [mPa·s]
x1 = 0.0815	1.07
x1 = 0.1351	1.202
